Experimental data taken from patent US6054429A (priority 1996, dated 2000).
Bridge positions count the residues as written; N and C are the ends. Square brackets hold non-standard residues; d marks the D form. Peptide text beside a SMILES is read from it. Hyp = O=C(O)[C@@H]1C[C@@H](O)CN1

Biological target: calcium channels in N1E115 mouse neuroblastoma cells (Mus musculus, UniProt O55017)
Format: cell-based

calcium channels in N1E115 mouse neuroblastoma cells, sequence (O55017 whole entry): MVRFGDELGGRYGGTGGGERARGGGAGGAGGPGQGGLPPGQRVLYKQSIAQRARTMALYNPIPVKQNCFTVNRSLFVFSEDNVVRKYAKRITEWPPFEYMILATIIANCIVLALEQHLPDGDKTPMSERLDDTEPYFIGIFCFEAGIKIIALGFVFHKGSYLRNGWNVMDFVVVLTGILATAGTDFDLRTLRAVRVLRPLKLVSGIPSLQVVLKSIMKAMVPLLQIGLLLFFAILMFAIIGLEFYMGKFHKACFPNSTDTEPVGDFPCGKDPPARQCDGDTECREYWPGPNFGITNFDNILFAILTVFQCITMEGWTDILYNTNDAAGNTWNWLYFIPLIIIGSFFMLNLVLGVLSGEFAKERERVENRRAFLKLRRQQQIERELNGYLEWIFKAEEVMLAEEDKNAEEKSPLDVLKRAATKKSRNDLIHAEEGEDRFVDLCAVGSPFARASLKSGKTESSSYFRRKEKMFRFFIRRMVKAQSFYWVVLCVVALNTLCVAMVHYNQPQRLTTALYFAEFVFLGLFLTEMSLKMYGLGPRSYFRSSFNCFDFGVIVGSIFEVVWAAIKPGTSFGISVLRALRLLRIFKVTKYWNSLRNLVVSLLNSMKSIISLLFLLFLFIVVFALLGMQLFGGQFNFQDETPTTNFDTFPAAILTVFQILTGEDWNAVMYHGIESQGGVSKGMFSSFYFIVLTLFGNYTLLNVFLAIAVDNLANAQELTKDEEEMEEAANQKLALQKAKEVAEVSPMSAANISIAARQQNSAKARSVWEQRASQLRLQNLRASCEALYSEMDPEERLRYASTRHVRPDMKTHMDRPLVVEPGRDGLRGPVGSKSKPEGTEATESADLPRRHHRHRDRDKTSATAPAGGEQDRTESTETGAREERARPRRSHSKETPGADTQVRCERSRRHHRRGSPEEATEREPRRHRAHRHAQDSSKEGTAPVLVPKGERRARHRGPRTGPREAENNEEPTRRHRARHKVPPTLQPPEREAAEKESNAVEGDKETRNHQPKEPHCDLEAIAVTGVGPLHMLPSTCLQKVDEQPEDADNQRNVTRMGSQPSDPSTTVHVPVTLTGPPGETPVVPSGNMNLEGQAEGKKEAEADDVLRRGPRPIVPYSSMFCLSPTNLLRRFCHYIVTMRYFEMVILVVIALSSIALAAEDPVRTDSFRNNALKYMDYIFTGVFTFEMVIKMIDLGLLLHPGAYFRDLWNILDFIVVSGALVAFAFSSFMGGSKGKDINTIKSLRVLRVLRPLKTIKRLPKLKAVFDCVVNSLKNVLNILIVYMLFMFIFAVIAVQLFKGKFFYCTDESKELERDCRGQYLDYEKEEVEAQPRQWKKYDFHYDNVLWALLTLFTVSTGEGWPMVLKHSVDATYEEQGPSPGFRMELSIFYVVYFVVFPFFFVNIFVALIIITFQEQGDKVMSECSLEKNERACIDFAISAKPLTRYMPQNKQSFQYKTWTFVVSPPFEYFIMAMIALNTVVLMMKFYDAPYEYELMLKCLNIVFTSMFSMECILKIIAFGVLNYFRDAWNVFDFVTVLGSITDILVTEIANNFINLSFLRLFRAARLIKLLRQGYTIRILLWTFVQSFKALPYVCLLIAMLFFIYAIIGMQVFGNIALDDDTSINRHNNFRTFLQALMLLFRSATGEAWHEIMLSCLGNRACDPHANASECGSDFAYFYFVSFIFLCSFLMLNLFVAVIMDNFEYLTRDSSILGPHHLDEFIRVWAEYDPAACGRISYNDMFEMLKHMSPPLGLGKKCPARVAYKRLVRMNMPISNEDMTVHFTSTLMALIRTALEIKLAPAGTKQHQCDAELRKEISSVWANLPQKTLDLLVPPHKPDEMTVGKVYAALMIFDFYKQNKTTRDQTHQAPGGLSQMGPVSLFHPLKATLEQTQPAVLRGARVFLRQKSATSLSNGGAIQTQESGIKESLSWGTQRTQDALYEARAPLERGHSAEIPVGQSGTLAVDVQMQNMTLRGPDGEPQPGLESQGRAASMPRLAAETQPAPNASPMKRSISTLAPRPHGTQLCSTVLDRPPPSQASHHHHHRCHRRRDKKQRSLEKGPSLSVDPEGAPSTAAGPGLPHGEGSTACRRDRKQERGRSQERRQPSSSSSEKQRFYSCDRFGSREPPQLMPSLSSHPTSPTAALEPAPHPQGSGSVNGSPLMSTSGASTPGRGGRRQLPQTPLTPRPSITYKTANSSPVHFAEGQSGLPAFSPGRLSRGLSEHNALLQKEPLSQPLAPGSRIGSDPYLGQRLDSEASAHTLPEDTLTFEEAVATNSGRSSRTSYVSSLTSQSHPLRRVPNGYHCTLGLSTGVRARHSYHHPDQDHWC
calcium channels in N1E115 mouse neuroblastoma cells, sequence (P54285 whole entry partner): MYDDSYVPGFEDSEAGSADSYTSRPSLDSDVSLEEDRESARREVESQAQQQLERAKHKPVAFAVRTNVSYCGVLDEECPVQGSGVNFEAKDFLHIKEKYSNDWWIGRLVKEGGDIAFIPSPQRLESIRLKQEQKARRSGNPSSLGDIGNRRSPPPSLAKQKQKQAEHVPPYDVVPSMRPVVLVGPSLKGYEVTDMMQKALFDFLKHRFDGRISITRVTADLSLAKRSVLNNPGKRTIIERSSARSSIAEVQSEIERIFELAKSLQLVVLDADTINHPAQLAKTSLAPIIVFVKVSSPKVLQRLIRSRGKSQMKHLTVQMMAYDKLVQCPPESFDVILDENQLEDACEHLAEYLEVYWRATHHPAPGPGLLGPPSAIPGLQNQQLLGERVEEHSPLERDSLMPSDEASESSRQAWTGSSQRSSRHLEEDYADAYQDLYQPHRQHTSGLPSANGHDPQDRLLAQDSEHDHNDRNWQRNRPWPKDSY
calcium channels in N1E115 mouse neuroblastoma cells, sequence (O08532 25-956 partner limits assumed): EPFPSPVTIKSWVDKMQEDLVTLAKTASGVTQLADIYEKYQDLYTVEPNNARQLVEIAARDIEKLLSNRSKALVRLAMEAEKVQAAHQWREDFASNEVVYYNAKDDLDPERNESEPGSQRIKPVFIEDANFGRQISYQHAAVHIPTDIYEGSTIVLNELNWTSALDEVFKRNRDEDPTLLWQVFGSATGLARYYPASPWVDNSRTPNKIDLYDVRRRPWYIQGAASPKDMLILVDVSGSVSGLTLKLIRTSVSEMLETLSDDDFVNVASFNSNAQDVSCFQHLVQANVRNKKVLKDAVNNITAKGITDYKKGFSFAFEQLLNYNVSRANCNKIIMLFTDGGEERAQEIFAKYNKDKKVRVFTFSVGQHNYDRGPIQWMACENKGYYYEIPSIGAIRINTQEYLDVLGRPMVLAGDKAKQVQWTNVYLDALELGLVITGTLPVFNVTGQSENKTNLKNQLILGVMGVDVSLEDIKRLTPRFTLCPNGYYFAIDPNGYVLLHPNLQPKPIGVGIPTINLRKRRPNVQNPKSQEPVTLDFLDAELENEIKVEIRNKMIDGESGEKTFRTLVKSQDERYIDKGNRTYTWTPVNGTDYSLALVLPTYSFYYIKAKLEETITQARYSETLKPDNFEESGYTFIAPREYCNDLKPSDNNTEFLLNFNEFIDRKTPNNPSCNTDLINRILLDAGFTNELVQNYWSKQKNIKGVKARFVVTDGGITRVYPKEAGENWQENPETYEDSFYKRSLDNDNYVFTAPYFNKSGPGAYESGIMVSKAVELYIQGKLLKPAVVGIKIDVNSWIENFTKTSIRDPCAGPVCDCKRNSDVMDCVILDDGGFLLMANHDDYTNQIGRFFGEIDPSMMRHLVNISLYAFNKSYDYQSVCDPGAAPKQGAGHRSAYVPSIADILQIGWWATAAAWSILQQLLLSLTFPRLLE
calcium channels in N1E115 mouse neuroblastoma cells, sequence (O08532 957-1103 partner limits assumed): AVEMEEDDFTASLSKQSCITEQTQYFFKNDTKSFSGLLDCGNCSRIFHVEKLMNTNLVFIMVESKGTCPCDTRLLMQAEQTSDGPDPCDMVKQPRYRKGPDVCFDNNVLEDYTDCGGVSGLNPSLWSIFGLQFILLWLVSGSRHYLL

CC[C@H](C)[C@@H]1NC(=O)[C@H](CO)NC(=O)[C@H]([C@@H](C)O)NC(=O)[C@H](C(C)C)NC(=O)CNC(=O)[C@@H]2CSSC[C@@H]3NC(=O)[C@H](CCCNC(=N)N)NC(=O)CNC(=O)[C@H](CSSC[C@H](N)C(=O)N[C@@H](CCCNC(=N)N)C(=O)N[C@@H](CO)C(=O)N[C@@H](CO)C(=O)NCC(=O)N[C@@H](CO)C(=O)N4C[C@H](O)C[C@H]4C(=O)N2)NC(=O)[C@H](CSSC[C@@H](C(=O)N[C@H](C(N)=O)[C@@H](C)O)NC(=O)[C@H](CCCCN)NC(=O)CNC(=O)[C@H](CCCNC(=N)N)NC(=O)[C@H](Cc2ccc(O)cc2)NC3=O)NC1=O [SNX-157] (H-CRSSGS[Hyp]CGVTSICCGRCYRGKCT-NH2; disulfide 1-15, 8-18, 14-23)
IC50 for calcium current (in words): not measurable within the range of concentrations tested
